Assay results reported in US20200016152A1, “TREATMENT OF DISEASES” (Ampio Pharmaceuticals, Inc., priority 2010, published 2020).
“Also recorded” adds a separate entry of the source.

What was measured:
[1] = system: human retinal endothelial cells; experiment: ECIS transendothelial electrical resistance (TER), retinal endothelial cells, 96-well plates; format: cell-based
Procedure: Assays were performed to determine the effect of DA-DKP on transendothelial electrical resistance (TER) of human renal glomerular microvascular endothelial cells (ACBRI 128, Cell Systems Corporation (exclusive distributor for Applied Cell Biology Research Institute), Kirkland, Wash.). Electrical resistance was measured using the electric cell-substrate impedance sensing (ECIS) system (ECISZθ, obtained from Applied Biophysics) with 8-well multiple electrode plates (8W10E). Each well of the plates was coated with 5 μg/cm^2 fibronectin in HBSS by adding the fibronectin in a volume of 100 μl per well and incubating the plates for 30 minutes in a 37° C. incubator with 5% CO2. The fibronectin solution was removed, and 400 μl of EGM-2 culture medium (Lonza) was added to each well. The plates were connected to the ECISZθ system and were electrically stabilized. […] ECIS (resistance) was monitored for 90 hours.
Assays were performed to determine the effect of DA-DKP on transendothelial electrical resistance (TER) of human retinal endothelial cells (ACBRI 181, Cell Systems Corporation (exclusive distributor for Applied Cell Biology Research Institute), Kirkland, Wash.). Electrical resistance was measured using the electric cell-substrate impedance sensing (ECIS) system (ECISZθ, obtained from Applied Biophysics) as described in Example 1, but using 96-well multiple electrode plates […].

[2] = system: human renal glomerular microvascular endothelial cells; experiment: ECIS transendothelial electrical resistance (TER), glomerular endothelial cells; format: cell-based
Procedure: Assays were performed to determine the effect of DA-DKP on transendothelial electrical resistance (TER) of human renal glomerular microvascular endothelial cells (ACBRI 128, Cell Systems Corporation (exclusive distributor for Applied Cell Biology Research Institute), Kirkland, Wash.). Electrical resistance was measured using the electric cell-substrate impedance sensing (ECIS) system (ECISZθ, obtained from Applied Biophysics) with 8-well multiple electrode plates (8W10E). Each well of the plates was coated with 5 μg/cm^2 fibronectin in HBSS by adding the fibronectin in a volume of 100 μl per well and incubating the plates for 30 minutes in a 37° C. incubator with 5% CO2. The fibronectin solution was removed, and 400 μl of EGM-2 culture medium (Lonza) was added to each well. The plates were connected to the ECISZθ system and were electrically stabilized. The EGM-2 medium was aspirated and replaced with 200 μl of EGM-2 culture medium containing 100,000 cells per well. The plates were reconnected to the ECISZθ system and incubated for 24 hours in a 37° C. incubator with 5% CO2. The EGM-2 medium was aspirated and replaced with 400 μl of fresh EGM-2 culture medium per well. The plates were reconnected to the ECISZθ system and incubated for 6 hours in a 37° C. incubator with 5% CO2. Solutions of the test compounds in HBSS were prepared and placed in the incubator to equilibrate. The test compounds were then added to appropriate wells at the following final concentrations: DA-DKP (100 μM) (Sigma) and TNFα (1 ng/ml) (Sigma). ECIS (resistance) was monitored for 90 hours.

RhoA = experiment: Rho activation assay (GLISA) in retinal endothelial cells; format: cell-based, human
Procedure: This experiment was performed using a commercially-available Rho activation assay (GLISA) purchased from Cytoskeleton, Denver, Colo., following the manufacturer's protocol. Briefly, passage 8 or 12 human retinal endothelial cells (ACBRI 181, Applied Cell Biology Research Institute, Kirkland, Wash.) were cultured on fibronectin-coated (1 μg/cm^2) 6-well tissue culture plates using EGM-2 culture medium (Lonza) for 24 hours in a 37° C. incubator with 5% CO2 (30,000 cells/well in total volume of 3 ml). Then, the medium was aspirated and replaced with Ultraculture medium supplemented with 0.1% fetal bovine serum, L-glutamine, sodium pyruvate, penicillin/streptomycin and ITSS (insulin, transferrin sodium selenium) (all from Lonza) to serum starve the cells and reduce the background level of RhoA. The cells were cultured for 24 hours in a 37° C. incubator with 5% CO2. Test compounds diluted in HBSS were placed in the incubator to equilibrate before addition to the cells. Then, 150 μl of each test compound was added to the appropriate culture wells, and the plates were incubated in the incubator for an additional 15 minutes. Then, thrombin was added to appropriate wells. After 1 minute, the cells were washed one time with 1.5 ml phosphate buffered saline and were then lysed with 100 μl GLISA lysis buffer supplemented with protease inhibitors. The extracts were scraped, transferred to microcentrifuge tubes and transferred to ice to preserve the active form of RhoA. All extracts were then cleared of debris by spinning at 10,000 rpms for 2 minutes at 4° C. The supernatants were transferred to new tubes and placed back on ice. Aliquots of each extract were removed for the GLISA assay and for protein determinations. All protein concentrations were within 10%, and the extracts were used at the achieved concentrations (equates to 15 total protein per well). The GLISA assay was performed using the reagents supplied in the kit.

[3] = system: human retinal endothelial cells; experiment: Actin stress fiber formation (rhodamine-phalloidin F-actin staining); format: cell-based; settings: 15 minutes and 3 hours
Procedure: Passage 12 human retinal endothelial cells (ACBRI 181, Cell Systems Corporation (exclusive distributor for Applied Cell Biology Research Institute), Kirkland, Wash.) were seeded into 16-chamber glass slides coated with 5 μg/cm^2 fibronectin at 5000 cells per well in a total volume of 200 μl of EGM-2 medium (Lonza). The slides were cultured in a 37° C. incubator with 5% CO2 for 48 hours with daily medium changes. Then, the test compounds (DA-DKP, S1P and TNFα), diluted in Hanks Balanced Salt Solution (HBSS; Lonza), were added to give the following final concentrations: DA-DKP (100 μM) (Sigma), TNFα (1 ng/ml) (Sigma), and S1P (1 μM) (Sigma). The slides were incubated with the test compounds for 15 minutes or 3 hours in a 37° C. incubator with 5% CO2. After this incubation, the medium was aspirated, and the cells were fixed using 3.6% formaldehyde in phosphate buffered saline (PBS) for ten minutes at room temperature. All wells were then washed two times with 100 μl PBS. The cells were permeabilized using a 0.1% Triton X-100 in PBS for 5 minutes. All wells were then washed two times with 100 μl PBS, and 50 μl of a 1:40 dilution of rhodamine-phalloidin (Invitrogen) in PBS was added to the cells to stain for F-actin and left on the cells for 20 minutes at room temperature. All wells were then washed two times with 100 μl PBS. Then 100 μl PBS was added to each well and the cells were observed and photographed using an inverted microscope using a rhodamine (ex530/em590) filter.

[4] = system: passage 6 human retinal endothelial cells; experiment: ECIS transendothelial electrical resistance (TER), passage 6 retinal endothelial cells; format: cell-based; settings: for ECIS as compared to untreated cells: monitored 50 hours
Procedure: Assays were performed to determine the effect of MR-DKP (a diketopiperazine wherein R^1 in formula I is the side chain of methionine and R^2 is side chain of arginine) on transendothelial electrical resistance (TER) of passage 6 human retinal endothelial cells (Applied Cell Systems Corporation (exclusive distributor for Applied Cell Biology Research Institute), Kirkland, Wash.). Electrical resistance was measured using the electric cell-substrate impedance sensing (ECIS) system (ECISZθ, obtained from Applied Biophysics) with 8-well multiple electrode plates (8W10E). Each well of the plates was stabilized by adding 250 μl of 10 mM cysteine (Sigma) in sterile water to each well and incubating for 30 minutes at room temperature. The wells were then washed two times with 150 μl of sterile water to remove the cysteine. All wells were then coated with 10 μg/cm^2 collagen by diluting the stock solution (0.5 mg/ml Type IV collagenin 0.25% acetic acid (Sigma) in sterile water and adding 150 μl of the resulting solution to each well. The collagen solution was incubated on the plates at 37° C. for 120 minutes and then removed. The wells were washed two times with 400 μl sterile water to remove the collagen. Next, 400 μl of EGM-2 culture medium (Lonza) was added to each well. The plates were connected to the ECISZθ system and were electrically stabilized. The EGM-2 medium was aspirated and replaced with 400 μl of EGM-2 culture medium containing 100,000 cells per well. The plates were reconnected to the ECISZθ system and incubated for 24 hours in a 37° C. incubator with 5% CO2. The EGM-2 medium was aspirated and replaced with 400 μl of EGM-2 culture medium. The plates were reconnected to the ECISZθ system and incubated for 2 hours in a 37° C. incubator with 5% CO2. Solutions of the test compound in HBSS were prepared and placed in the incubator to equilibrate. The test compound was then added to appropriate wells at the following final concentrations: MR-DKP (50 μM and 100 ECIS (resistance) was monitored for 50 hours.
Example 5 was repeated, except that the diketopiperazine used was YE-DKP (a diketopiperazine wherein R^1 in formula I is the side chain of glutamic acid and R^2 is the side chain of tyrosine). […] The increase was about 20% at its maximum.

[5] = passage 8 cells, 100 μM + 0.1 U/ml thrombin
[6] = passage 8 cells, 100 μM, no thrombin
[7] = passage 12 cells, 100 μM + 0.1 U/ml thrombin
[8] = passage 12 cells, 100 μM, no thrombin
[9] = passage 12 cells, 1.0 μM + 0.1 U/ml thrombin
[10] = passage 12 cells, 1.0 μM, no thrombin
[11] = passage 8 cells, 10.0 μM + 0.1 U/ml thrombin
[12] = passage 8 cells, 10.0 μM, no thrombin
[13] = passage 12 cells, 10.0 μM + 0.1 U/ml thrombin
[14] = passage 12 cells, 10.0 μM, no thrombin

## C[C@@H]1NC(=O)[C@H](CC(=O)O)NC1=O [DA-DKP]
[1]; 100 μM
  ECIS (TER) increase, comparison of doses: greatest increase
[1]; doses 0.5 μM, 5.0 μM, 50 μM and 100
  ECIS (TER): dose-dependent increase in ECIS (TER)
[2]; 100 μM DA-DKP with TNFα 1 ng/ml, not significant
  effect on TNFα-induced drop in ECIS: prevent some of the TNFα-induced drop in ECIS
[2]; 100 μM alone
  ECIS increase persisting after treatment: 35 h
  start of ECIS increase after treatment: about 5.0 hours
  time at which ECIS increase reached significance after treatment: 12 h
[2]; 100 μM alone, glomerular endothelial cells, monitored 90 hours
  ECIS (resistance) as compared to untreated cells: increase of ECIS
RhoA; [5]
  Mean OD (active RhoA): 0.377
  Percent Inhibition vs. Thrombin: 40.04%
RhoA; [6]
  Mean OD (active RhoA): 0.110
  Percent Inhibition vs. Untreated Control: −7.88%
RhoA; [7]
  Mean OD (active RhoA): 0.752
  Percent Inhibition vs. Thrombin: 46.82%
RhoA; [8]
  Mean OD (active RhoA): 0.389
  Percent Inhibition vs. Untreated Control: 14.52%
[3]; 100 μM DA-DKP with S1P 1 μM
  effect on cortical rings of S1P: enhance the cortical rings; also recorded: strengthen the protective effects of S1P
[3]; 100 μM DA-DKP with TNFα 1 ng/ml
  effect on stress fibers caused by TNFα: decreased the stress fiber formation and/or the thickness of the fibers; also recorded: reversed the formation of stress fibers induced by TNFα

## C[C@@H]1C[C@H]2[C@@H]3CCC4=CC(=O)C=C[C@]4(C)[C@@]3(F)[C@@H](O)C[C@]2(C)[C@@]1(O)C(=O)CO [Dexamethasone]
RhoA; [9]
  Mean OD (active RhoA): 0.826
  Percent Inhibition vs. Thrombin: 33.48%
RhoA; [10]
  Mean OD (active RhoA): 0.428
  Percent Inhibition vs. Untreated Control: 5.83%

## CSCC[C@@H]1NC(=O)[C@H](CCCNC(=N)N)NC1=O [MR-DKP]
[4]; 50 μM
  ECIS increase at its maximum: around 20%
  brief elevation in resistance, time window: 2 to 5 h
  start of ECIS increase: about 15 hours
  time at which ECIS increase became significant: about 18 hours
  time at which resistance increased again: about 30 hours
  time at which resistance returned to the levels of the control: 28 to 29 h
  time of reaching significance again: about 33 hours
  ECIS as compared to untreated cells: increase in ECIS
[4]; 50 μM, after the second increase
  persistence of ECIS increase: persisted for the remainder of the experiment
[4]; 100 μM
  ECIS increase at its maximum: around 20%
  persistence of ECIS increase: persisted for the remainder of the experiment
  start of ECIS increase: about 15 hours
  time at which ECIS increase became significant: about 18 hours
  time of reaching significance again: about 33 hours
  ECIS as compared to untreated cells: increase in ECIS

## O=c1cc(N2CCOCC2)oc2c(-c3ccccc3)cccc12 [PI3 kinase inhibitor LY 294002]
RhoA; [11]
  Mean OD (active RhoA): 0.433
  Percent Inhibition vs. Thrombin: 27.86%
RhoA; [12]
  Mean OD (active RhoA): 0.056
  Percent Inhibition vs. Untreated Control: 45.32%
RhoA; [13]
  Mean OD (active RhoA): 0.685
  Percent Inhibition vs. Thrombin: 58.73%
RhoA; [14]
  Mean OD (active RhoA): 0.370
  Percent Inhibition vs. Untreated Control: 18.70%
